From patent US4567175A, “8-Chloro-1,5-benzothiazepine derivatives” (Tanabe Seiyaku Co., Ltd., priority 1983, dated 1986)

Experiments:
[1] = test system: spontaneously hypertensive rats (SHR); assay: Hypotensive activity, oral administration to SHR, systolic blood pressure by tail plethysmography (Experiment 1); format: in vivo; conditions: 30 mg/kg oral
Description: A test compound (dose: 30 mg/kg) dissolved or suspended in water was administered orally to spontaneously hypertensive rats (SHR) (one group: 3 rats) fasted overnight. The systolic blood pressure of the rats was measured by the tail plethysmographic technique (The Journal of Laboratory and Clinical Medicine 78(1971), page 957). The hypotensive activity of the test compound was estimated at one or 4 hours after dosing and expressed as "-" if the decrease in blood pressure is less than 10 mm Hg; "+" if the decrease is not less than 10 mm Hg but less than 20 mm Hg; "++" if the decrease is not less than 20 mm Hg but less than 40 mm Hg; "+++" if the decrease is not less than 40 mm Hg but less than 60 mm Hg; or "++++" if the decrease is not less than 60 mm Hg.

[2] = test system: platelet aggregation; assay: Platelet aggregation-inhibiting activity, collagen-induced aggregation in rat platelet-rich plasma, Born's method (Experiment 5); format: cell-based, male Sprague-Dawley rats; parameters: key: -: less than 10% inhibition of platelet aggregation; +: not less than 10% inhibition of platelet aggregation but said percentage inhibition was lower than that of acetylsalicylic acid (100 μg/ml); ++: platelet aggregation-inhibiting activity at least as strong as that of acetylsalicylic acid (100 μg/ml); conditions: final concentration 100 μg/ml, rat PRP, 37° C.
Description: Blood was collected from the abdominal aorta of male Sprague-Dawley rats which were anesthetized with ether. Nine volumes of rat blood were mixed with one volume of an aqueous trisodium citrate solution, and the mixture was centrifuged to give platelet-rich plasma ("PRP") as the supernatant solution. The bottom layer was further centrifuged to give platelet-poor plasma ("PPP") as the supernatant solution. Platelet counts were adjusted to 0.8-1×10^6 /mm^3 for PRP by dilution with PPP. After a mixture of 200 μl of the diluted PRP and 25 μl of a test compound solution (final concentration: 100 μg/ml) was stirred for 2 minutes at 37° C., 25 μl of a collagen solution [Biochim. Biophys. Acta, 186, page 254(1969)] were added thereto. The degree of platelet aggregation was estimated by Born's method [Nature, 194, page 927(1962)] and the percentage inhibition of platelet aggregation was calculated therefrom.

[3] = test system: isolated heart of guinea pig; assay: Coronary vasodilating activity: Langendorff's method, coronary blood flow of isolated guinea pig heart (Experiment 4); conditions: for Coronary vasodilating activity (increase in coronary blood flow): isolated guinea pig heart, Langendorff, 30° C.
Description: Langendorff's method was used for testing the effect on the coronary blood flow of the isolated heart of guinea pig (about 280 g). The isolated heart was perfused with Locke-Ringer solution containing 2% of defibrinated rabbit blood, which had been saturated with a mixed gas of 95% O2 and 5% CO2 (30° C.). Perfusion pressure was kept at 40 cm H2 O. A solution of a test compound in an aqueous 5% glucose solution was injected into the perfusing solution at a volume of 0.1 ml per heart. The overflow of the perfusate was measured by means of a drop counter.
The coronary vasodilating activity of the test compound was expressed as "±" if the increase in coronary blood flow is less than 0.5 ml/minute at a dose of 100 μg/heart; "+" if the increase is not less than 0.5 ml/minute at a dose of 100 μg/heart; "++" if the increase is not less than 0.5 ml/minute at a dose of 30 μg/heart; and "+++" if the increase is not less than 0.5 ml/minute at a dose of not more than 10 μg/heart.

[4] = test system: vertebral artery; assay: Cerebral vasodilating activity: vertebral artery blood flow in anesthetized dogs, intraarterial injection, potency ratio to papaverine (Experiment 2); format: in vivo; conditions: for Cerebral vasodilating activity (potency ratio): injected into vertebral artery, potency ratio to papaverine from dose-response curves; for increase in vertebral artery blood flow (in words) / cerebral vasodilating activity, times stronger than the 7-chloro derivative: intraarterial; for cerebral vasodilating activity, times stronger than the 7-chloro derivative: versus (+)-cis-...-7-chloro-... hydrochloride (so in the source)
Description: On the other hand, when the coronary vasodilating activity is estimated by the Langendorff method using isolated hearts of guinea pigs, said activity of (+)-cis-2-(4-methoxyphenyl)-3-acetoxy-5-[2-(dimethylamino)ethyl]-8-chloro- 2,3-dihydro-1,5-benzothiazepin-4(5H)-one hydrochloride is about 10 times stronger than that of papaverine.
Male dogs weighing 10 to 20 kg were anesthetized with sodium pentobarbital (30 mg/kg, intravenous injection). The blood flow in vertebral artery was measured continuously by means of an electromagnetic flowmeter under artificial respiration. A test compound dissolved in an aqueous 5% glucose solution was injected into vertebral artery. The cerebral vasodilating activity of the test compound was estimated in terms of the potency ratio of said compound to papaverine, which was calculated from the dose-response curves thereof.

[5] = Acute toxicity (LD50), oral administration to mice; conditions: mouse, in vivo
Description: For example, the acute toxicity (LD50) of (+)-cis-2-(4-methoxyphenyl)-3-acetoxy-5-[2-(dimethylamino)ethyl]-8-chloro- 2,3-dihydro-1,5-benzothiazepin-4(5H)-one hydrochloride when orally administered to mice is more than 1000 mg/kg.

[6] = test system: vertebral artery; assay: Cerebral vasodilating activity: increase in vertebral artery blood flow in anesthetized dogs after femoral vein injection (Experiment 3); format: in vivo; conditions: 200 μg/kg into femoral vein
Description: Male dogs weighing about 20-24 kg (one group: 2 dogs) were anesthetized with sodium pentobarbital (35 mg/kg, intravenous injection). The blood flow in vertebral artery was measured by means of an electromagnetic flowmeter under artificial respiration. A test compound (i.e., (+)-cis-2-(4-methoxyphenyl)-3-acetoxy-5-[2-(dimethylamino)ethyl]-8-chloro- 2,3-dihydro-1,5-benzothiazepin-4(5H)-one hydrochloride) in a physiological saline solution was injected into the femoral vein at a dose of 200 μg/kg. The cerebral vasodilating activity of the test compound was estimated in terms of "increase (Δml/minute) in vertebral artery blood flow" which was calculated by subtracting "the blood flow measured immediately before injection of test compound" from "the blood flow measured at a period of time after injection of test compound".

SMILES | Hypotensive activity (decrease in blood pressure), 1 hr after dosing [1] | Hypotensive activity (decrease in blood pressure), 4 hrs after dosing [1] | Platelet aggregation-inhibiting activity [2] | Coronary vasodilating activity (increase in coronary blood flow) [3] | Cerebral vasodilating activity (potency ratio) [4] | also measured
CCN(C)CCN1C(=O)[C@H](OC(C)=O)[C@H](c2ccc(OC)cc2)Sc2cc(Cl)ccc21.Cl (racemic) [(±)-cis-2-(4-methoxyphenyl)-3-acetoxy-5-[2-(N-methyl-N-ethylamino)ethyl]-8-chloro-2,3-dihydro-1,5-benzothiazepin-4(5H)-one hydrochloride] | +++ (decrease is not less than 40 mm Hg but less than 60 mm Hg) | +++ (decrease is not less than 40 mm Hg but less than 60 mm Hg) |  |  |  | 
CCCN(C)CCN1C(=O)[C@H](OC(C)=O)[C@H](c2ccc(OC)cc2)Sc2cc(Cl)ccc21.O=C(O)C(=O)O (racemic) [(±)-cis-2-(4-methoxyphenyl)-3-acetoxy-5-[2-(N-methyl-N-n-propylamino)ethyl]-8-chloro-2,3-dihydro-1,5-benzothiazepin-4(5H)-one oxalate] |  |  | ++ | +++ (increase is not less than 0.5 ml/minute at a dose of not more than 10 μg/heart) |  | 
COc1ccc([C@@H]2Sc3ccc(Cl)cc3N(CCN(C)C)C(=O)[C@@H]2OC(C)=O)cc1.Cl (racemic) [(±)-cis-2-(4-methoxyphenyl)-3-acetoxy-5-[2-(dimethylamino)ethyl]-7-chloro-2,3-dihydro-1,5-benzothiazepin-4(5H)-one hydrochloride, reference compound] | - (decrease in blood pressure is less than 10 mm Hg) | ++ (decrease is not less than 20 mm Hg but less than 40 mm Hg) |  |  | 5 | 
COc1ccc([C@@H]2Sc3cc(Cl)ccc3N(CCN(C)C)C(=O)[C@@H]2OC(C)=O)cc1.Cl (racemic) [(±)-cis-2-(4-methoxyphenyl)-3-acetoxy-5-[2-(dimethylamino)ethyl]-8-chloro-2,3-dihydro-1,5-benzothiazepin-4(5H)-one hydrochloride] | ++ (decrease is not less than 20 mm Hg but less than 40 mm Hg) | ++++ (decrease is not less than 60 mm Hg) | ++ | +++ (increase is not less than 0.5 ml/minute at a dose of not more than 10 μg/heart) |  | 
CCN(CC)CCN1C(=O)[C@H](OC(C)=O)[C@H](c2ccc(OC)cc2)Sc2cc(Cl)ccc21.O=C(O)C(=O)O (single isomer, unassigned) [(+)-cis-2-(4-methoxyphenyl)-3-acetoxy-5-[2-(diethylamino)ethyl]-8-chloro-2,3-dihydro-1,5-benzothiazepin-4(5H)-one oxalate] |  |  | ++ |  |  | 
COc1ccc([C@@H]2Sc3cc(Cl)ccc3N(CCN(C)C)C(=O)[C@@H]2OC(C)=O)cc1.Cl (single isomer, unassigned) [(+)-cis-2-(4-methoxyphenyl)-3-acetoxy-5-[2-(dimethylamino)ethyl]-8-chloro-2,3-dihydro-1,5-benzothiazepin-4(5H)-one hydrochloride] |  |  |  | +++ (increase is not less than 0.5 ml/minute at a dose of not more than 10 μg/heart) | 25 | LD50 [5]: > 1000 mg/kg; increase in vertebral artery blood flow (in words) [4]: remarkable increase; cerebral vasodilating activity, times stronger than the 7-chloro derivative [4]: about 5 times; coronary vasodilating activity, times stronger than papaverine ([3]; Langendorff method, isolated hearts of guinea pigs, versus papaverine): about 10 times; Increase in vertebral artery blood flow, 1 minute ([6]; 1 minute after injection): 58 Δml/minute; Increase in vertebral artery blood flow, 3 minutes ([6]; 3 minutes after injection): 53 Δml/minute; Increase in vertebral artery blood flow, 5 minutes ([6]; 5 minutes after injection): 52 Δml/minute; Increase in vertebral artery blood flow, 10 minutes ([6]; 10 minutes after injection): 38 Δml/minute; Increase in vertebral artery blood flow, 20 minutes ([6]; 20 minutes after injection): 21 Δml/minute; Increase in vertebral artery blood flow, 30 minutes ([6]; 30 minutes after injection): 14 Δml/minute
COc1ccc([C@@H]2Sc3cc(Cl)ccc3N(CCN(C)C)C(=O)[C@@H]2OC(C)=O)cc1.O=C(O)/C=C\C(=O)O (single isomer, unassigned) [(+)-cis-2-(4-methoxyphenyl)-3-acetoxy-5-[2-(dimethylamino)ethyl]-8-chloro-2,3-dihydro-1,5-benzothiazepin-4(5H)-one maleate] | ++++ (decrease is not less than 60 mm Hg) | ++++ (decrease is not less than 60 mm Hg) |  |  |  | decrease in blood pressure, 4 hours after administration ([1]; 4 hours): ~68 mm Hg; decrease in blood pressure, one hour after administration ([1]; one hour): about 86 mm Hg
COc1ccc([C@@H]2Sc3cc(Cl)ccc3N(CCN(C)C)C(=O)[C@@H]2O)cc1.O=C(O)C(=O)O (single isomer, unassigned) [(+)-cis-2-(4-methoxyphenyl)-3-hydroxy-5-[2-(dimethylamino)ethyl]-8-chloro-2,3-dihydro-1,5-benzothiazepin-4(5H)-one oxalate] |  |  | ++ |  |  | 
CCC(=O)O[C@H]1C(=O)N(CCN(C)C)c2ccc(Cl)cc2S[C@H]1c1ccc(OC)cc1.O=C(O)C(=O)O (single isomer, unassigned) [(+)-cis-2-(4-methoxyphenyl)-3-propionyloxy-5-[2-(dimethylamino)ethyl]-8-chloro-2,3-dihydro-1,5-benzothiazepin-4(5H)-one oxalate] |  |  | ++ |  | 23.7 | increase in vertebral artery blood flow (in words) [4]: remarkable increase; cerebral vasodilating activity, times stronger than the 7-chloro derivative [4]: about 5 times
COc1ccc(Cc2nccc3cc(OC)c(OC)cc23)cc1OC [Papaverine, reference compound] |  |  |  | + (increase is not less than 0.5 ml/minute at a dose of 100 μg/heart) |  | 
